Assay results published in patent publication US8338445B2, “Crystal form of cabergoline” (Lek Pharmaceuticals D.D., priority 2007, dated 2012).

What was measured:
[1] = Residual solvents after comparable drying of crystal forms; type: physicochemical; details: after drying at 35° C. at 5 mBar for 48 h; both forms isolated from same solvent mixture
Procedure: Cabergoline from L isolated by the process of the invention can be washed by cold aliphatic hydrocarbons or digesting previously isolated material in a suspension of aliphatic hydrocarbons preferably heptane to remove impurities and finally dried in vacuo at temperature from 20 to 80° C., preferably from 30 to 50° C., preferably 30 to 40° C. to remove residual solvents. […] Form L and form I are isolated from the same solvent mixture, but form I is captured as an early precipitate as described in Example B and contains below 5% of form L. Solvents are easier removed if cabergoline is in the form of needles.
6.1 g of cabergoline obtained in example 1 were dissolved in 12 ml of 2-chlorotoluene by agitating at room temperature. The solution was cooled down to −30° C. while stirring. The gel-like material was formed after 60 minutes. Furthermore 150 ml of n-heptane were added and let stirring 1 hour at −20° C. Further the solvent was exchanged with 100 ml of fresh n-heptane, precooled to −20° C. and let stirring 1 hour at −20° C. Afterwards the temperature was slowly raising to 0° C. (0.5 K/min) and small samples were analyzed.

[2] = Particle size distribution by the Malvern method; type: physicochemical
Procedure: Physically pure cabergoline form L is isolated in a form of fine needles what is shown in the SEM picture. Average shorter axis of the needles is below 10 μm. Milling of cabergoline form L isolated by the process of the invention by a hammer mill gives particle size distribution d 0.9 below 10 μm.
6.1 g of cabergoline obtained in Example 1 were dissolved in 12 ml of 2-chlorotoluene by agitating at room temperature. The solution was cooled down to −30° C. while stirring. The gel-like material was formed after 60 minutes. Furthermore 150 ml of n-heptane were added and let stirring 1 hour at −20° C. Further the solvent was exchanged with 100 ml of fresh n-heptane, precooled to −20° C. and let stirring 1 hour at −20° C. Afterwards the temperature was raised to 10° C. (0.5 K/min) and further stirred for 1 hour, The temperature was raised to 20° C. (0.5 K/min) followed by stirring for 5 hour. The obtained dense suspension was filtered and washed with 50 ml of n-heptane and dried at 40° C. and 5 mbar for 24 hours. The obtained needle-like product (5.5 g) was identified as cabergoline form L. Particle size distribution of the product of Example 2 is the following: d 0.1=0.4 um; d 0.5=4.2 um; d 0.9=33 um.
Particle size distribution was measured by the Malvern method.

residual solvent 2-Chlorotoluene [1]	residual solvent Heptane [1]	particle size distribution d 0.9 ([2]; after milling by a hammer mill)	Particle size distribution d 0.1 ([2]; product of Example 2, unmilled)	Particle size distribution d 0.5 ([2]; product of Example 2, unmilled)	particle size distribution d 0.9 ([2]; product of Example 2, unmilled)	Structure (SMILES)
333 ppm	764 ppm	–	–	–	–	C=CCN1C[C@H](C(=O)N(CCCN(C)C)C(=O)NCC)C[C@@H]2c3cccc4[nH]cc(c34)C[C@H]21 [Cabergoline form I, 1-((6-allylergolin-8β-yl)-carbonyl)-1-(3-dimethylaminopropyl)-3-ethylurea, reference compound]
236 ppm	186 ppm	below 10 μm	0.4 um	4.2 um	33 um	C=CCN1C[C@H](C(=O)N(CCCN(C)C)C(=O)NCC)C[C@@H]2c3cccc4[nH]cc(c34)C[C@H]21 [Cabergoline form L, 1-((6-allylergolin-8β-yl)-carbonyl)-1-(3-dimethylaminopropyl)-3-ethylurea]
